The values below come from US20190047966A1, “NOVEL COMPOUND AND PHARMACOLOGICALLY ACCEPTABLE SALT THEREOF” (MEIJI SEIKA PHARMA CO., LTD., priority 2016, published 2019).

Assay [1] concerns the target T1, human histamine H4 receptor (Homo sapiens, UniProt Q9H3N8).
T1 construct: purchased PerkinElmer Inc; host or cells: CHO-K1
Kind of assay: Evaluation of Human H4 Receptor Affinity ([3H]histamine binding). The following applies: inhibition constant Ki, CHO-K1 membrane preparation, read-out: Evaluation of H4 Receptor Affinity. The essentials:
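Radioligand displacement: compound competes with 8.2 nM [3H]histamine at recombinant human H4 receptor in CHO-K1 membranes (Tris-HCl 50 mM pH 7.4, EDTA 1.25 mM; 25 °C, 90 min), with filter-bound radioactivity counted. IC50 was converted to Ki via Cheng-Prusoff (Kd 5.7 nM); 1.0 μM histamine set nonspecific binding.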

Assay [2] addresses human histamine H1 receptor (Homo sapiens, UniProt P35367). Nature of the assay: Evaluation of Human H1 Receptor Affinity ([3H]pyrilamine binding). Also on record: purchased PerkinElmer Inc; host or cells: CHO-K1. The following applies: inhibition constant Ki, CHO-K1 membrane preparation. The method, boiled down:
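Ki values are Cheng-Prusoff conversions of IC50 (Kd 1.1 nM) from radioligand displacement of 1.2 nM [3H]pyrilamine, with 1.0 μM pyrilamine defining nonspecific binding.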

Each structure is given as a SMILES string. Structures can show the parent of a compound that is named as a salt.

Sequence of human histamine H1 receptor (P35367 whole entry): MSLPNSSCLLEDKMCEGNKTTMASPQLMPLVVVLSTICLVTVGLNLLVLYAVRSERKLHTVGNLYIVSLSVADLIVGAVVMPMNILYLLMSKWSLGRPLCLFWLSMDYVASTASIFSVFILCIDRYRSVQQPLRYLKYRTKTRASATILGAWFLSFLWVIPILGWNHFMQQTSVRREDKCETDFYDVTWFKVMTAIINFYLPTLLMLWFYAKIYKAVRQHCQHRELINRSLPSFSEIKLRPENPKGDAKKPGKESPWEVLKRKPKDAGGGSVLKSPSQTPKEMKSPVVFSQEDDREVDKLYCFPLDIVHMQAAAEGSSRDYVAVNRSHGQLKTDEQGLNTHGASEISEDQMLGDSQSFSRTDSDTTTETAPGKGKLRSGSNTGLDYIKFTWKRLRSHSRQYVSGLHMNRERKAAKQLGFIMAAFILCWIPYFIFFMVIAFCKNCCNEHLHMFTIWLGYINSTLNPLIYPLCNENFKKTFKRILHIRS
T1 sequence (Q9H3N8 whole entry): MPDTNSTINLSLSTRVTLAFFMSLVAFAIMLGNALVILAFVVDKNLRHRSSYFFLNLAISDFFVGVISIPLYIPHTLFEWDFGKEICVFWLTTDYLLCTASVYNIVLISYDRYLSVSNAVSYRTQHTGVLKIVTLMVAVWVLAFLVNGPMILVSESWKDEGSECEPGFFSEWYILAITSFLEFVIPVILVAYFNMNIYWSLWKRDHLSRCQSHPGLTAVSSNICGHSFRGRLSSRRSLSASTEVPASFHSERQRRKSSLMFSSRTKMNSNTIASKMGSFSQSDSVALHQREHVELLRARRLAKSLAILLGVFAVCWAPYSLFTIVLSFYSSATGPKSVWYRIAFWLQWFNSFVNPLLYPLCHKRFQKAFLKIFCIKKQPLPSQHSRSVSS

As for `CC(C)(C(=O)O)[C@H]1C[C@@H](OCCN2CCN(c3nc(N)nc4c3CCc3cc(OCc5ccc(Cl)cc5)ccc3-4)CC2)C1` [Example 172, cis-2-(3-(2-(4-(2-amino-8-((4-chlorobenzyl)oxy)-5,6-dihydrobenzo[h]quinazolin-4-yl)piperazin-1-yl)ethoxy)cyclobutyl)-2-methylpropanoic acid], the Ki in assay [1] and in assay [2] was below 0.1 µM in each case.
As to `CC(C)(C(=O)O)[C@H]1C[C@H](OCCN2CCN(c3nc(N)nc4c3CCc3cc(OCc5ccc(Cl)cc5)ccc3-4)CC2)C1` [Example 173, trans-2-(3-(2-(4-(2-amino-8-((4-chlorobenzyl)oxy)-5,6-dihydrobenzo[h]quinazolin-4-yl)piperazin-1-yl)ethoxy)cyclobutyl)-2-methylpropanoic acid], the Ki in assay [1] and in assay [2] was below 0.1 µM each time.
Consider `CC(C)(C(=O)O)[C@H]1C[C@H](OCCN2CCN(c3nc(N)nc4c3CCc3cc(OCc5ccc(OC(F)(F)F)cc5)ccc3-4)CC2)C1` [Example 174, trans-2-(3-(2-(4-(2-amino-8-((4-(trifluoromethoxy)benzyl)oxy)-5,6-dihydrobenzo[h]quinazolin-4-yl)piperazin-1-yl)ethoxy)cyclobutyl)-2-methylpropanoic acid], for which the Ki in assay [1] and in assay [2] was below 0.1 µM throughout.
Consider `N#CC1(C(=O)O)CCC(COCCN2CCN(c3nc(N)nc4c3CCc3cc(OCc5ccc(OC(F)(F)F)cc5)ccc3-4)CC2)CC1` (centres unmarked) [Example 175, 4-((2-(4-(2-amino-8-((4-(trifluoromethoxy)benzyl)oxy)-5,6-dihydrobenzo[h]quinazolin-4-yl)piperazin-1-yl)ethoxy)methyl)-1-cyanocyclohexane-1-carboxylic acid], for which the Ki in assay [1] and in assay [2] was below 0.1 µM throughout.
For `Nc1nc2c(c(N3CCN(CCOC4CCC(C(=O)O)OC4)CC3)n1)CCc1cc(OCc3ccc(OC(F)(F)F)cc3)ccc1-2` (centres unmarked) [Example 179, 5-(2-(4-(2-amino-8-((4-(trifluoromethoxy)benzyl)oxy)-5,6-dihydrobenzo[h]quinazolin-4-yl)piperazin-1-yl)ethoxy)tetrahydro-2H-pyran-2-carboxylic acid], the Ki in assay [1] and in assay [2] was below 0.1 µM each time.
With `Nc1nc2c(c(N3CCN(CCO[C@H]4C[C@@H]5[C@H](C4)[C@@]5(F)C(=O)O)CC3)n1)CCc1cc(OCc3ccc(OC(F)(F)F)cc3)ccc1-2` [Example 180, (1R,3r,5S,6s)-3-(2-(4-(2-amino-8-((4-(trifluoromethoxy)benzyl)oxy)-5,6-dihydrobenzo[h]quinazolin-4-yl)piperazin-1-yl)ethoxy)-6-fluorobicyclo[3.1.0]hexane-6-carboxylic acid], the Ki in assay [1] and in assay [2] was below 0.1 µM in each case.
On to `Nc1nc2c(c(N3CCN(CCO[C@H]4CC[C@H]5[C@H](C(=O)O)[C@H]54)CC3)n1)CCc1cc(OCc3ccc(OC(F)(F)F)cc3)ccc1-2` [Example 181, (1S,25,5R,65)-2-(2-(4-(2-amino-8-((4-(trifluoromethoxy)benzyl)oxy)-5,6-dihydrobenzo[h]quinazolin-4-yl)piperazin-1-yl)ethoxy)bicyclo[3.1.0]hexane-6-carboxylic acid], for which the Ki in assay [1] was 0.1 to 0.5 µM; in assay [2], below 0.1 µM.
For the compound `Nc1nc2c(c(N3CCN(CCOCc4ccc(C(=O)O)s4)CC3)n1)CCc1cc(OCc3ccc(OC(F)(F)F)cc3)ccc1-2` [Example 182, 5-((2-(4-(2-amino-8-((4-(trifluoromethoxy)benzyl)oxy)-5,6-dihydrobenzo[h]quinazolin-4-yl)piperazin-1-yl)ethoxy)methyl)thiophene-2-carboxylic acid], the Ki in assay [1] was 0.1 to 0.5 µM; in assay [2], below 0.1 µM.
Turning to `Nc1nc2c(c(N3CCN(CCOc4csc(C(=O)O)c4)CC3)n1)CCc1cc(OCc3ccc(OC(F)(F)F)cc3)ccc1-2` [Example 183, 4-(2-(4-(2-amino-8-((4-(trifluoromethoxy)benzyl)oxy)-5,6-dihydrobenzo[h]quinazolin-4-yl)piperazin-1-yl)ethoxy)thiophene-2-carboxylic acid], the Ki in assay [1] and in assay [2] was below 0.1 µM in each case.
Regarding `Nc1nc2c(c(N3CCN(CCOCC4CCCC(C(=O)O)C4)CC3)n1)CCc1cc(OCc3ccc(OC(F)(F)F)cc3)ccc1-2` (stereo not drawn) [Example 185, trans-3-((2-(4-(2-amino-8-((4-(trifluoromethoxy)benzyl)oxy)-5,6-dihydrobenzo[h]quinazolin-4-yl)piperazin-l-yl)ethoxy)methyl)cyclohexane-1-carboxylic acid dihydrochloride], the Ki in assay [1] and in assay [2] was below 0.1 µM each time.
Take `CS(=O)(=O)NC(=O)COCCOCCN1CCN(c2nc(N)nc3c2CCc2cc(OCc4ccc(Cl)cc4)ccc2-3)CC1` [Example 187, 2-(2-(2-(4-(2-amino-8-((4-chlorobenzyl)oxy)-5,6-dihydrobenzo[h]quinazolin-4-yl)piperazin-1-yl)ethoxy)ethoxy)-N-(methylsulfonyl)acetamide]: the figures for the Ki in assay [1] and in assay [2] were 0.1 to 0.5 µM and below 0.1 µM, respectively.
Consider `CNC(=O)COCCOCCN1CCN(c2nc(N)nc3c2CCc2cc(OCc4ccc(Cl)cc4)ccc2-3)CC1` [Example 188, 2-(2-(2-(4-(2-amino-8-((4-chlorobenzyl)oxy)-5,6-dihydrobenzo[h]quinazolin-4-yl)piperazin-1-yl)ethoxy)ethoxy)-N-methylacetamide dihydrochloride], for which the Ki in assay [1] and in assay [2] was below 0.1 µM throughout.
Turning to `Nc1nc2c(c(N3CCN(CCO[C@H]4C[C@@H](C(=O)NO)C4)CC3)n1)CCc1cc(OCc3ccc(OC(F)(F)F)cc3)ccc1-2` [Example 189, cis 3-(2-(4-(2-amino-8-((4-(trifluoromethoxy)benzyl)oxy)-5,6-dihydrobenzo[h]quinazolin-4-yl)piperazin-1-yl)ethoxy)-N-hydroxycyclobutane-l-carboxamide], the Ki in assay [1] and in assay [2] was below 0.1 µM each time.
Regarding `Nc1nc2c(c(N3CCN(CCOCC4CN(C5=NS(=O)(=O)N=C5O)C4)CC3)n1)CCc1cc(OCc3ccc(OC(F)(F)F)cc3)ccc1-2` [Example 190(b), 3-(3-((2-(4-(2-amino-8-((4-(trifluoromethoxy)benzyl)oxy)-5,6-dihydrobenzo[h]quinazolin-4-yl)piperazin-1-yl)ethoxy)methyl)azetidin-1-yl)-4-hydroxy-1,2,5-thiadiazole 1,1-dioxide], the Ki in assay [1] and in assay [2] was below 0.1 µM throughout.
Take `CN1CCN(c2nc(N)nc3c2CCc2cc(NS(=O)(=O)c4ccc(OCC(F)(F)F)cc4)ccc2-3)CC1` [Example 191, N-(2-amino-4-(4-methylpiperazin-1-yl)-5,6-dihydrobenzo[h]quinazolin-8-yl)-4-(2,2,2-trifluoroethoxy)benzenesulfonamide]: the Ki in assay [1] and in assay [2] was below 0.1 µM each time.
On to `Nc1nc2c(c(N3CCNCC3)n1)CCc1cc(NS(=O)(=O)c3ccc(OC(F)(F)F)cc3)ccc1-2` [Example 192, N-(2-amino-4-(4-piperazin-1-yl)-5,6-dihydrobenzo[h]quinazolin-8-yl)-4-(trifluoromethoxy)benezenesulfonamide hydrochloride], for which the Ki in assay [1] and in assay [2] was below 0.1 µM in each case.
